In brackets after ≈: the same amount, converted by molar mass.
Test system: Histophilus somni
Experiment: minimum inhibitory concentration (MIC)
Method: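 Broth microdilution MIC (Sensititre BOPO7F bovine plate, CLSI methods) of 19 antimicrobials against field isolates of P. multocida, M. haemolytica, H. somni (deep nasopharyngeal swabs) and E. coli, Enterococcus spp. (rectal swabs) from weaned dairy heifers. Incubation 16-24 h at 35 C. MIC is the lowest concentration preventing visible growth. Values with <= or > lie at the tested range limits. Trimethoprim-sulfamethoxazole is given as the trimethoprim component of a 1:19 mixture.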

CN1C[C@@H]2C[C@H]1CN2c1cc2c(cc1F)c(=O)c(C(=O)O)cn2C1CC1 [Danofloxacin]
Details	minimum inhibitory concentration [µg/mL]
isolate (source animal id): 3	≤ 0.12
isolate (source animal id): 4	≤ 0.12
isolate (source animal id): 7	≤ 0.12
isolate (source animal id): 14	≤ 0.12
isolate (source animal id): 15	≤ 0.12
isolate (source animal id): 17	≤ 0.12
isolate (source animal id): 18	≤ 0.12
isolate (source animal id): 20	≤ 0.12
isolate (source animal id): 23	≤ 0.12
isolate (source animal id): 45	≤ 0.12
isolate (source animal id): 53	≤ 0.12
isolate (source animal id): 83	≤ 0.12
isolate (source animal id): 88	≤ 0.12
isolate (source animal id): 92	≤ 0.12
isolate (source animal id): 93	≤ 0.12
isolate (source animal id): 99	≤ 0.12
isolate (source animal id): 100	≤ 0.12
isolate (source animal id): 105	≤ 0.12
isolate (source animal id): 107	≤ 0.12
isolate (source animal id): 108	≤ 0.12
isolate (source animal id): 109	≤ 0.12
isolate (source animal id): 110	≤ 0.12
isolate (source animal id): 117	≤ 0.12
isolate (source animal id): 121	≤ 0.12
isolate (source animal id): 123	≤ 0.12
isolate (source animal id): 124	≤ 0.12
isolate (source animal id): 127	≤ 0.12
isolate (source animal id): 128	≤ 0.12
isolate (source animal id): 130	≤ 0.12
isolate (source animal id): 132	≤ 0.12
isolate (source animal id): 135	≤ 0.12
isolate (source animal id): 140	≤ 0.12
isolate (source animal id): 141	≤ 0.12
isolate (source animal id): 142	≤ 0.12
isolate (source animal id): 144	≤ 0.12
isolate (source animal id): 146	≤ 0.12
isolate (source animal id): 147	≤ 0.12
isolate (source animal id): 151	≤ 0.12
isolate (source animal id): 153	≤ 0.12
isolate (source animal id): 154	≤ 0.12
isolate (source animal id): 156	≤ 0.12
isolate (source animal id): 157	≤ 0.12
isolate (source animal id): 176	≤ 0.12
isolate (source animal id): 183	≤ 0.12
isolate (source animal id): 186	≤ 0.12
isolate (source animal id): 196	≤ 0.12
isolate (source animal id): 198	≤ 0.12
isolate (source animal id): 200	≤ 0.12
isolate (source animal id): 206	≤ 0.12
isolate (source animal id): 208	≤ 0.12
isolate (source animal id): 210	≤ 0.12
isolate (source animal id): 212	≤ 0.12
isolate (source animal id): 215	≤ 0.12
isolate (source animal id): 216	≤ 0.12
isolate (source animal id): 218	≤ 0.12
isolate (source animal id): 219	≤ 0.12
isolate (source animal id): 224	≤ 0.12
isolate (source animal id): 228	≤ 0.12
isolate (source animal id): 230	≤ 0.12
isolate (source animal id): 233	≤ 0.12
isolate (source animal id): 238	≤ 0.12
isolate (source animal id): 239	≤ 0.12
isolate (source animal id): 241	≤ 0.12
isolate (source animal id): 242	≤ 0.12
isolate (source animal id): 243	≤ 0.12
isolate (source animal id): 245	≤ 0.12
isolate (source animal id): 246	≤ 0.12
isolate (source animal id): 247	≤ 0.12
isolate (source animal id): 248	≤ 0.12
isolate (source animal id): 250	≤ 0.12
isolate (source animal id): 251	≤ 0.12
isolate (source animal id): 252	≤ 0.12
isolate (source animal id): 254	≤ 0.12
isolate (source animal id): 258	≤ 0.12
isolate (source animal id): 259	≤ 0.12
isolate (source animal id): 262	≤ 0.12
isolate (source animal id): 264	≤ 0.12
isolate (source animal id): 265	≤ 0.12
isolate (source animal id): 266	≤ 0.12
isolate (source animal id): 267	≤ 0.12
isolate (source animal id): 269	≤ 0.12
isolate (source animal id): 271	≤ 0.12
isolate (source animal id): 272	≤ 0.12
isolate (source animal id): 274	≤ 0.12
isolate (source animal id): 276	≤ 0.12
isolate (source animal id): 278	≤ 0.12
isolate (source animal id): 280	≤ 0.12
isolate (source animal id): 281	≤ 0.12
isolate (source animal id): 283	≤ 0.12
isolate (source animal id): 288	≤ 0.12
isolate (source animal id): 291	≤ 0.12
isolate (source animal id): 292	≤ 0.12
isolate (source animal id): 296	≤ 0.12
isolate (source animal id): 306	≤ 0.12
isolate (source animal id): 336	≤ 0.12
isolate (source animal id): 337	≤ 0.12
isolate (source animal id): 341	≤ 0.12

CS(=O)(=O)c1ccc([C@@H](O)[C@@H](CF)NC(=O)C(Cl)Cl)cc1 [Florfenicol]
Details	minimum inhibitory concentration [µg/mL]
isolate (source animal id): 3	≤ 0.25
isolate (source animal id): 4	1 (≈ 2.79 µM)
isolate (source animal id): 7	1 (≈ 2.79 µM)
isolate (source animal id): 14	1 (≈ 2.79 µM)
isolate (source animal id): 15	≤ 0.25
isolate (source animal id): 17	1 (≈ 2.79 µM)
isolate (source animal id): 18	≤ 0.25
isolate (source animal id): 20	1 (≈ 2.79 µM)
isolate (source animal id): 23	≤ 0.25
isolate (source animal id): 45	1 (≈ 2.79 µM)
isolate (source animal id): 53	1 (≈ 2.79 µM)
isolate (source animal id): 83	0.5 (≈ 1.4 µM)
isolate (source animal id): 88	0.5 (≈ 1.4 µM)
isolate (source animal id): 92	0.5 (≈ 1.4 µM)
isolate (source animal id): 93	≤ 0.25
isolate (source animal id): 99	0.5 (≈ 1.4 µM)
isolate (source animal id): 100	0.5 (≈ 1.4 µM)
isolate (source animal id): 105	0.5 (≈ 1.4 µM)
isolate (source animal id): 107	0.5 (≈ 1.4 µM)
isolate (source animal id): 108	1 (≈ 2.79 µM)
isolate (source animal id): 109	0.5 (≈ 1.4 µM)
isolate (source animal id): 110	0.5 (≈ 1.4 µM)
isolate (source animal id): 117	0.5 (≈ 1.4 µM)
isolate (source animal id): 121	0.5 (≈ 1.4 µM)
isolate (source animal id): 123	≤ 0.25
isolate (source animal id): 124	≤ 0.25
isolate (source animal id): 127	≤ 0.25
isolate (source animal id): 128	0.5 (≈ 1.4 µM)
isolate (source animal id): 130	1 (≈ 2.79 µM)
isolate (source animal id): 132	0.5 (≈ 1.4 µM)
isolate (source animal id): 135	0.5 (≈ 1.4 µM)
isolate (source animal id): 140	0.5 (≈ 1.4 µM)
isolate (source animal id): 141	≤ 0.25
isolate (source animal id): 142	1 (≈ 2.79 µM)
isolate (source animal id): 144	≤ 0.25
isolate (source animal id): 146	0.5 (≈ 1.4 µM)
isolate (source animal id): 147	1 (≈ 2.79 µM)
isolate (source animal id): 151	0.5 (≈ 1.4 µM)
isolate (source animal id): 153	≤ 0.25
isolate (source animal id): 154	1 (≈ 2.79 µM)
isolate (source animal id): 156	1 (≈ 2.79 µM)
isolate (source animal id): 157	≤ 0.25
isolate (source animal id): 176	≤ 0.25
isolate (source animal id): 183	≤ 0.25
isolate (source animal id): 186	≤ 0.25
isolate (source animal id): 196	≤ 0.25
isolate (source animal id): 198	≤ 0.25
isolate (source animal id): 200	≤ 0.25
isolate (source animal id): 206	≤ 0.25
isolate (source animal id): 208	≤ 0.25
isolate (source animal id): 210	≤ 0.25
isolate (source animal id): 212	≤ 0.25
isolate (source animal id): 215	≤ 0.25
isolate (source animal id): 216	≤ 0.25
isolate (source animal id): 218	≤ 0.25
isolate (source animal id): 219	≤ 0.25
isolate (source animal id): 224	≤ 0.25
isolate (source animal id): 228	≤ 0.25
isolate (source animal id): 230	≤ 0.25
isolate (source animal id): 233	1 (≈ 2.79 µM)
isolate (source animal id): 238	≤ 0.25
isolate (source animal id): 239	1 (≈ 2.79 µM)
isolate (source animal id): 241	≤ 0.25
isolate (source animal id): 242	≤ 0.25
isolate (source animal id): 243	≤ 0.25
isolate (source animal id): 245	1 (≈ 2.79 µM)
isolate (source animal id): 246	≤ 0.25
isolate (source animal id): 247	≤ 0.25
isolate (source animal id): 248	≤ 0.25
isolate (source animal id): 250	≤ 0.25
isolate (source animal id): 251	≤ 0.25
isolate (source animal id): 252	≤ 0.25
isolate (source animal id): 254	≤ 0.25
isolate (source animal id): 258	≤ 0.25
isolate (source animal id): 259	≤ 0.25
isolate (source animal id): 262	1 (≈ 2.79 µM)
isolate (source animal id): 264	≤ 0.25
isolate (source animal id): 265	≤ 0.25
isolate (source animal id): 266	≤ 0.25
isolate (source animal id): 267	≤ 0.25
isolate (source animal id): 269	≤ 0.25
isolate (source animal id): 271	≤ 0.25
isolate (source animal id): 272	≤ 0.25
isolate (source animal id): 274	1 (≈ 2.79 µM)
isolate (source animal id): 276	≤ 0.25
isolate (source animal id): 278	≤ 0.25
isolate (source animal id): 280	≤ 0.25
isolate (source animal id): 281	≤ 0.25
isolate (source animal id): 283	≤ 0.25
isolate (source animal id): 288	≤ 0.25
isolate (source animal id): 291	0.5 (≈ 1.4 µM)
isolate (source animal id): 292	≤ 0.25
isolate (source animal id): 296	≤ 0.25
isolate (source animal id): 306	≤ 0.25
isolate (source animal id): 336	≤ 0.25
isolate (source animal id): 337	≤ 0.25
isolate (source animal id): 341	≤ 0.25
